Where only a bound is given, the exact number is not on record here.

Common to all, as to type: cell-based, human
Experiment [1] concerns MDA-MB-231. Briefly: PrestoBlue cell viability assay, MDA-MB-231. As to conditions: for IC50: MDA-MB-231, 24 h incubation, PrestoBlue.
In a further experiment the test system is MDA-MB-468. Nature of the experiment: PrestoBlue cell viability assay, MDA-MB-468. As to conditions: MDA-MB-468, 24 h incubation.
In experiment [2] the test system is HCC-1806. Nature of the experiment: PrestoBlue cell viability assay, HCC-1806. As to conditions: for IC50: HCC-1806, 24 h incubation, PrestoBlue.
In a further experiment the test system is IMR90. Nature of the experiment: PrestoBlue cell viability assay, lung fibroblasts IMR90. The following applies: IMR90, 24 h incubation.
In the next experiment the test system is MCF10a. Nature of the experiment: PrestoBlue cell viability assay, non-malignant breast cells MCF10a. The following applies: 24 h incubation.
For experiment [3], the system named is HUVEC. Briefly: IC10 concentration in HUVEC cells.
Experiment [4] has as its system MDA-MB-231. Briefly: Cell death assay. The following applies: MDA-MB-231, IC50 concentration, 24 h, Annexin V/PI.
Experiment [5] relates to HUVEC. Briefly: Endothelial tube formation assay. The following applies: IC10 concentration.
For experiment [6], the system named is MDA-MB-231. Nature of the experiment: Cell invasion, 3D Transwell assay with Geltrex matrix, MDA-MB-231. The following applies: MDA-MB-231, IC20 concentration, 24 h.
In experiment [7] the test system is MDA-MB-231. Nature of the experiment: Cell cycle profile. As to conditions: MDA-MB-231, IC20 concentration, 24 h; non-treated cells 16%.
For experiment [8], the system named is HCC-1806. Briefly: Cell migration, 2D wound-healing scratch assay, HCC-1806. The following applies: 24 h.
Experiment [9] deals with HCC-1806. Nature of the experiment: Cell invasion, 3D Transwell assay with Geltrex matrix, HCC-1806. As to conditions: 24 h.
The subject of experiment [10] is HCC-1806. Nature of the experiment: Cell death assay. The following applies: HCC-1806, IC50 concentration, 24 h, Annexin V/PI.

`N.N.[Cl][Pt][Cl]` [cisplatin]: the IC50 in the experiment with MDA-MB-231 [1] is 132 ± 18 µM; with MDA-MB-468 it was 44.2 ± 2.1 µM; in the experiment with HCC-1806 [2], 163 ± 5.86 µM; in the experiment on IMR90, 149 ± 13.1 µM; with MCF10a, 32.9 ± 6.68 µM.

Compound `Cc1ccc(C(C)C)cc1.[Cl][Ru]([Cl])[PH]12CN3CN(CN(C3)C1)C2` [RAPTA-C, [Ru(η^6-p-cymene)Cl2(1,3,5-triaza-7-phosphaadamantane])] returned an IC10 concentration in the experiment on HUVEC [3] of 150 µM. Also, the IC50 in the experiment with MDA-MB-231 [1], in the experiment on MDA-MB-468, with HCC-1806 [2], in the experiment on IMR90 and in the experiment on MCF10a was above 300 µM in each case. Also, the IC20 is 250 µM in the experiment on MDA-MB-231 [1] (read-out: IC20 values employed, MDA-MB-231 (same value for both cell lines)) and 250 µM in the experiment on HCC-1806 [2] (read-out: IC20 values employed, HCC-1806 (same value for both cell lines)). The “cells that die by apoptosis” value with MDA-MB-231 [4] is recorded as 30.8%. Besides, the “disruption in tube length (TL)” value with HUVEC [5] is on record as 22%. Besides, in the experiment with HUVEC [5], the “disruption of tube length (first statement)” value is reported as 27%. In addition, the invasion reduction in the experiment on MDA-MB-231 [6] worked out at 66.9%; with HCC-1806 [9] (HCC-1806, IC20 concentration), 41.2%. Besides, in the experiment with MDA-MB-231 [7], the “cells in G2/M arrest” value came out at 23%. The reduction of migration in the experiment on HCC-1806 [8] (HCC-1806, IC20 concentration) was 42.7%. Further, in the experiment on HCC-1806 [8] (IC20 concentration), the “decrease in antimigratory properties in HCC-1806 with respect to MDA-MB-231” value is listed as “ca. 17.6%”. The “reduction of the antiinvasive properties in HCC-1806 with respect to MDA-MB-231” value in the experiment with HCC-1806 [9] (IC20 concentration) was found to be 25.7%. In the experiment on HCC-1806 [10], this compound had an apoptosis of 27.25%.

For orientation: IC50 means the concentration that inhibits the measured activity by half. Higher therefore signals lower potency. A word on the IC20: it is the concentration at which the effect reaches the 20% level.

Values taken from article PMC8571052 (ChemMedChem, 2021).
